Test results: patent publication US8853274B1, “Compositions and methods for targeting glioblastomas cells” (Vanderbilt University, priority 2011, dated 2014)

Experiments:
Format in all cases: cell-based, human
HIF1α and HIF2α = test: Immunoblot of HIF1α/HIF2α under hypoxia in T4302 CD133+ cells; conditions: 200 nM 24 h, then 2% O2 16 h
Experimental: (A) T4302 CD133+ cells were treated with 200 nM RO4929097 (GSI), and irradiated 4 hours later. Cells were cultured for two days and lysed for immunoblotting. (B) T4302 CD133+ cells were treated with 200 nM GSI or FTI±radiation. Cells were lysed 2 days after treatment. (C) T4302 CD133+ cells were treated with 200 nM GSI±FTI for 24 hours, and left under normoxia or in 2% O2 for 16 hours before being lysed for immunoblotting.

T4302 CD133+ cells = test: Cell growth / viability on day 5 (CellTiter-Glo); conditions: 100 nM; with or without 3 Gy radiation
Experimental: (A, B) T4302 CD133+ cells were treated with 100 nM RO4929097 (GSI) and/or 100 nM tipifarnib (FTI) for 4 hours prior to 3 Gy radiation. (A) Cell growth on day 5 and (B) caspase 3/7 activation on day 3 were determined as described in FIG. 4. #: p<0.001 by one-way ANOVA, combo vs. single agents. (C) The effects of GSIs and FTI against growth of T4302 CD133− cells were determined as described in panel A. (D, E) T4302 CD133+ cells were treated with GSI, FTI, or a 1:1 mixture at different concentrations (ranging from 3000 nM to ˜0.5 nM, 1:3 dilution)±3 Gy radiation. Cell viability was determined at 5 days after treatment in comparison to vehicle-treated groups. […] (F) T4302 CD 133+ cells were treated by GSI±FTI with a 2-fold dilution. Neurospheres were countered on day 10, and normalized to the vehicle-treated group.
GSC sensitivity to drug(s) was primarily measured as inhibition of cell viability (survival). Cells were treated with drugs alone or in combination±3-Gy radiation at indicated concentrations. Cell viability is determined by CellTiter-Glo kit (Promega) after 5-day incubation. IC50 values are calculated by the GraphPad Prism5 software.

GBM 44 = test: Growth inhibition at day 5, spheroid GBM culture
Experimental: (§1) (A) Known genetic features of selected GBM samples. WT: wild type; Amp: amplification; vIII: EGFRvIII; ND: not determined. (B) Spheroid GBM cultures were derived from freshly collected subcutaneous tumors and cultured for 2 weeks in stem cell media to enrich stem cell-like cancer cells. SF7225 was maintained as a primary spheroid culture. Growth inhibition at day 5 after treatment was determined as described in FIG. 5. *: p<0.01 by Student's t-test and growth inhibition ≧30% vs. the corresponding vehicle-treated groups. #: p<0.01 and >30% growth inhibition vs. the radiation only groups.
(§2) Work is now extended to a set of subcutaneous GBM xenografts (GBM) established by Dr. Jann Sarkaria and colleagues at Mayo Clinic. These samples are known to have mutational status of EGFR, p53 and PTEN and different radiosensitivity (FIG. 8A) (69-71). Because the cancer stem cell identity of CD133+ of the Mayo Clinic samples has not been validated by functional assays, the present inventor used the neurosphere culture that is widely utilized as a surrogate of GSCs for its ability to enrich GSC-like population (72, 73). Tumor response to GSI, FTI and/or radiation was determined as growth inhibition on day 5 after treatment, with a greater than 30% cell number reduction was defined as positive response mimicking the RECIST criteria (FIG. 8B). […] Therefore, the present inventor will continuously expand the GBM panel and determine the genomic features of all samples with focus on prevalent GBM-associated aberrations. On the basis of this molecularly characterized tumor panel, the present inventor will start to explore the potential biomarkers that may predict tumor response to the combination therapy of radiation, GSI and FTI by experiments described in herein.

GBM43 = test: Growth inhibition at day 5, spheroid GBM culture; conditions: effects diminished after radiation
Experimental: as §1, §2

## CC(C)(C(=O)NCC(F)(F)C(F)(F)F)C(=O)N[C@@H]1C(=O)Nc2ccccc2-c2ccccc21 [RO4929097]
HIF1α and HIF2α
  HIF1α and HIF2α levels upon hypoxia stimulation: moderate reduction
T4302 CD133+ cells
  degree of growth inhibition after 5-day treatment, in words: weaker growth inhibition
GBM 44; 0 Gy
  growth inhibition on day 5: 48±3.2%
GBM 44; 3 Gy
  growth inhibition on day 5: 65±3.3%
GBM43
  tumor response (growth inhibition day 5), in words: moderate response
